Assay [1] deals with T1, GST-HAB1 with 6×-His-PYR1^MANDI (Arabidopsis thaliana, UniProt O49686, F108A/F159L/K59R/S122G/V81I/Y58H).
T1 construct: made in house; host or cells: E. coli BL21[DE3]pLysS (receptor)
The experiment in a line: PP2C enzyme inhibition assay (4-methylumbelliferyl-phosphate). The assay is classed as biochemical. As to conditions: PYR1^MANDI with GST-HAB1, GST-ABI1, GST-ABI2. The method, then: We next characterized the effects of recombinant PYR1^MANDI on PP2C activity using the fluorogenic substrate 4-methylumbelliferyl-phosphate. Recombinant receptor and PP2C proteins were prepared as described above and used to examine PP2C inactivation in response to mandipropamid or ABA. Enzyme inhibition assays were conducted using the following assay conditions: 100 nM 6×-His-PYR1^MANDI, 50 nM GST-PP2C, 100 mM Tris-OAc (pH 7.9), 100 mM NaCl, 1 mM MnCl2, 1% β-mercaptoethanol. […] The three ABA-regulated clade A PP2Cs, GST-HAB1, GST-ABI1 and GST-ABI2 were each tested under the same enzyme conditions in separate reactions. The assays were conducted at a variety of mandipropamid or ABA concentrations so that IC50 values could be determined. […] Thus, the PYR1^MANDI receptor is highly sensitive to activation by mandipropamid and interacts with multiple clade A PP2Cs in response to mandipropamid. This high level of sensitivity is consistent with the yeast two hybrid results described above in which a detectable interaction between PYR1^MANDI and HAB1 could be observed at concentrations as low as 2 nM (see Table 1). We note that the yeast two hybrid reporter systems requires only a small percentage of PYR1^MANDI receptors to bind HAB1 for an interaction signal and is therefore a potentially more sensitive indicator than in vitro assays. […] Thus these in vitro assays confirm that PYR1^MANDI is selectively activated by mandipropamid.

Assay [2] has as its system PYR1-OX. Kind of assay: qRT-PCR of ABA-regulated genes RD29B and RAB18. The following applies: 50 μM ABA, 8 hours. The assay is classed as in vivo, Arabidopsis. The method, then:
One of ABA's major effects is to regulate gene expression. We therefore examined the effects of ABA and mandipropamid on gene expression in wild type, PYR-OX, MDP1 and MPD2 transgenic plants. Seed of the wild type or transgenic lines were surface sterilized, stratified for 4 days at 4° C. and then grown for 10 days at room temperature under continuous illumination in a liquid culture consisting of 0.5×MS salts and 0.5% sucrose and grown with continuous shaking to provide aeration. After 10 days, the culture solutions were adjusted to contain 50 μM ABA, 2 μM mandipropamid, or a mock treatment. After 8 hours exposure to the test compounds RNA was isolated using RNAEasy™ Plant RNA isolation kit (Qiagen, USA) and treated with DNAse. The purified RNA was utilized in qRT-PCR reactions using primers for the ABA-regulated genes RD29B or RAB18. Biological triplicate and triple technical replicate measurements were conducted. To perform qRT-PCR analyses, cDNA was generated from 5 μg of total RNA using superscript reverse transcriptase III (Invitrogen, USA), in reaction mixture containing a oligo-dT20 (SEQ ID NO:110) and a ribosomal RNA primer. Real-time quantitative PCR analysis was performed by ΔCt method of relative quantification. PCR mixtures contained cDNA, Maxima® SYBR green/Fluorescein qPCR master mix (Fermentas, USA) and 330 nM of each gene-specific primer. RT-PCRs were conducted using a BioRad CFX96 Real-Time PCR System and the data were processed using the BioRad CFX Manager software (BioRad, USA). PCRs were performed under the following cycling conditions: 3 min at 95° C., followed by 40 cycles of 10 sec at 95° C., 10 sec at 55° C. and 30 sec at 72° C. in 96-well optical reaction plates (BioRad, USA). The specificity of amplicons was verified by melting curve (disassociation) analysis (60-95° C.) after 40 cycles. Input cDNA was normalized using an internal control gene, PEX4 (AT5G25760).
In general terms: Quantitative PCR measures a nucleic acid by following its amplification.

Assay [3] concerns the target T2, PYR1 K59R F159V (Arabidopsis thaliana, UniProt O49686, F159V/K59R).
T2 construct: expressed in transfected cells; host or cells: S. cerevisiae Y190
Kind of assay: Y2H Pocket Library Screen (HAB1, X-gal). The assay is classed as cell-based. On the procedure: (§1) The set of 475 mutant plasmids were individually transformed into the Y190 yeast two hybrid reporter strain co-transformed with pACT-HAB1, as previously described (Park et al., 2009). The yeast strains generated were arrayed into 96-well plates yielding what we refer to as the “pocket library”. The pocket library strains were spotted onto agar plates containing selective synthetic dextrose (minus Leu & Trp) medium that was supplemented with a single test compound at 100 μM. The pocket library strains were separately tested for responsiveness to the following compounds: dichlobenil, benzothiadiazole, mandipropamid, fludioxonil, and benoxacor. After incubating test plates at 30° C. for two days, colonies were chloroform lysed and stained to reveal β-galactosidase expression levels, using previously described methods (Park et al., 2009). Mutants displaying responsiveness to the test compound, if present, were identified by virtue of X-gal staining and then subjected to subsequent optimization efforts. Using this approach we identified mutations that conferred detectable sensitivity to the compounds tested (see entries labeled “Pocket Library Screens” in Table 1).

The target of assay [4] is T3, PYR1 K59R M158T (Arabidopsis thaliana, UniProt O49686, K59R/M158T).
T3 construct: expressed in transfected cells; host or cells: S. cerevisiae Y190 two-hybrid reporter strain
T3 sequence (Q9CAJ0 23-511): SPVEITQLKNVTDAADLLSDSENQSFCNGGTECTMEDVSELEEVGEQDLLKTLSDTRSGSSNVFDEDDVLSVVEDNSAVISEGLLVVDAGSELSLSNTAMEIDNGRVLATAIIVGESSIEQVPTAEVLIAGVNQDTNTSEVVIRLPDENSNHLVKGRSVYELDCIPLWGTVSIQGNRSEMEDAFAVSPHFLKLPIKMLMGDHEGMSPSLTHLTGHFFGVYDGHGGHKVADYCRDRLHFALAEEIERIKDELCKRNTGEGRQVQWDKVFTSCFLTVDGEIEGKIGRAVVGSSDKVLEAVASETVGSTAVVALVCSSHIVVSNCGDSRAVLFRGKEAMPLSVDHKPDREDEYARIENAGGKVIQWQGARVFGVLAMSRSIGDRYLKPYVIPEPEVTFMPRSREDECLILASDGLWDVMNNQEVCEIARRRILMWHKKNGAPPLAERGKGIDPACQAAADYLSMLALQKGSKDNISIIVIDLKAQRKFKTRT
T3 sequence (O49686 whole entry K59R/M158T): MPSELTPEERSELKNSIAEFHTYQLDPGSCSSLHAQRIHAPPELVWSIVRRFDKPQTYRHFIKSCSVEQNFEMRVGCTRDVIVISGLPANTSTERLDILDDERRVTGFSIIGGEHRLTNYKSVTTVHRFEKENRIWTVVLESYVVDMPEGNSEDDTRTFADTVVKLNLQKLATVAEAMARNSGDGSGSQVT
The experiment in a line: Y2H Pocket Library Screen (HAB1, X-gal). The assay is classed as cell-based. The method, then: as §1

Assay [5] concerns the target T4, PYR1 K59R L87F (Arabidopsis thaliana, UniProt O49686, K59R/L87F).
T4 construct: expressed in transfected cells; host or cells: S. cerevisiae Y190 yeast two-hybrid reporter strain
Kind of assay: Y2H Pocket Library Screen (HAB1, X-gal). The assay is classed as cell-based. On the procedure:
as §1

The target of assay [6] is T5, PYR1 K59R T162W (Arabidopsis thaliana, UniProt O49686, K59R/T162W).
T5 construct: expressed in transfected cells; host or cells: S. cerevisiae Y190
T5 sequence (O49686 whole entry K59R/T162W): as the sequence (O49686 whole entry K59R/M158T) above, with T158M, T162W counted along it
T5 sequence (Q9CAJ0 23-511, further chain): as the sequence (Q9CAJ0 23-511) above
Kind of assay: Y2H Pocket Library Screen (HAB1, X-gal). The assay is classed as cell-based. The method, then:
as §1

In assay [7] the target is T6, PYR1 K59R A89W (Arabidopsis thaliana, UniProt O49686, A89W/K59R).
T6 construct: expressed in transfected cells; host or cells: S. cerevisiae Y190 yeast two-hybrid reporter strain
T6 sequence (O49686 whole entry K59R/A89W): as the sequence (O49686 whole entry K59R/M158T) above, with A89W, T158M counted along it
T6 sequence (Q9CAJ0 23-511, further chain): as the sequence (Q9CAJ0 23-511) above
Kind of assay: Y2H Pocket Library Screen (HAB1, X-gal). The assay is classed as cell-based. On the procedure: as §1

Assay [8] concerns the target T7, PYR1 K59R S92W (Arabidopsis thaliana, UniProt O49686, K59R/S92W).
T7 construct: expressed in transfected cells; host or cells: S. cerevisiae Y190 yeast two-hybrid reporter strain
Kind of assay: Y2H Pocket Library Screen (HAB1, X-gal). Format: cell-based. The method, then: as §1

For assay [9], the target named is T8, PYR1 K59R S92I (Arabidopsis thaliana, UniProt O49686, K59R/S92I).
T8 construct: expressed in transfected cells; host or cells: S. cerevisiae Y190 yeast two-hybrid reporter strain
T8 sequence (O49686 whole entry K59R/S92I): as the sequence (O49686 whole entry K59R/M158T) above, with S92I, T158M counted along it
T8 sequence (Q9CAJ0 23-511, further chain): as the sequence (Q9CAJ0 23-511) above
The experiment in a line: Y2H Pocket Library Screen (HAB1, X-gal). Format: cell-based. The method, then: as §1

The target of assay [10] is T9, PYR1 K59R A89I (Arabidopsis thaliana, UniProt O49686, A89I/K59R).
T9 construct: expressed in transfected cells; host or cells: S. cerevisiae Y190 yeast two-hybrid reporter strain
T9 sequence (O49686 whole entry K59R/A89I): as the sequence (O49686 whole entry K59R/M158T) above, with A89I, T158M counted along it
T9 sequence (Q9CAJ0 23-511, further chain): as the sequence (Q9CAJ0 23-511) above
The experiment in a line: Y2H Pocket Library Screen (HAB1, X-gal). Format: cell-based. On the procedure: as §1

Assay [11] addresses T10, PYR1 K59R M158C (Arabidopsis thaliana, UniProt O49686, K59R/M158C).
T10 construct: expressed in transfected cells; host or cells: S. cerevisiae Y190 two-hybrid reporter strain
The experiment in a line: Y2H Pocket Library Screen (HAB1, X-gal). The assay is classed as cell-based. On the procedure: as §1

Assay [12] has as its target T11, PYR1 K59R M158V (Arabidopsis thaliana, UniProt O49686, K59R/M158V).
T11 construct: expressed in transfected cells; host or cells: S. cerevisiae Y190 two-hybrid reporter strain
The experiment in a line: Y2H Pocket Library Screen (HAB1, X-gal). The assay is classed as cell-based. On the procedure: as §1

Assay [13] concerns the target T12, PYR1 K59R A89I S92W (Arabidopsis thaliana, UniProt O49686, A89I/K59R/S92W).
T12 construct: expressed in transfected cells; host or cells: S. cerevisiae Y190 two-hybrid reporter strain
Kind of assay: Y2H Combinatorial Mutagenesis Screen I (HAB1, X-gal). The assay is classed as cell-based. From the text:
(§2) This screening approach yielded mutants at ligand contacting residues that alter sensitivity to specific ligands. We reasoned that receptor sensitivity could be improved by systematically constructing combinations of the best mutant variants identified in the first round of screening. To test this, we constructed mutant combinations using the strongest mutations identified for mandipropamid, benzothiadiazole, benoxacor or fludioxonil sensitivity. The mutations selected for combinatorial mutagenesis are listed in bold type in Table 1; The mutant combinations were constructed using the QuickChange Lightning Multi Site-Directed PCR Mutagenesis kit (Agilent, USA) using pBD-PYR1^K59R template DNA and mutagenic primers, essentially as previously described (Mosquna et al., 2011). The mutant combinations were sequence validated, introduced into the pACT-HAB1 Y190 reporter strain and then tested for responsiveness to a range of compound concentrations (100, 50, 25, 10, 1, 0.2, 0.1 or 0 μM each test compound). These efforts yielded double mutant receptor variants with improved sensitivity for the 4 compound/receptor pairs examined (see entries labeled “Combinatorial Mutagenesis Screen I” in Table 1).

The target in assay [14] is T13, PYR1 K59R A89I S92I (Arabidopsis thaliana, UniProt O49686, A89I/K59R/S92I).
T13 construct: expressed in transfected cells; host or cells: S. cerevisiae Y190 two-hybrid reporter strain
T13 sequence (O49686 whole entry K59R/A89I/S92I): as the sequence (O49686 whole entry K59R/M158T) above, with A89I, S92I, T158M counted along it
T13 sequence (Q9CAJ0 23-511, further chain): as the sequence (Q9CAJ0 23-511) above
Described as above. The assay is classed as cell-based.
Source text: as §2

This note sets out measurements from patent publication US9738902B2, “Modified PYR/PYL receptors activated by ligands” (priority 2013, dated 2017).

T10 sequence (O49686 whole entry K59R/M158C): as the sequence (O49686 whole entry K59R/M158T) above, with T158C counted along it
T10 sequence (Q9CAJ0 23-511, further chain): as the sequence (Q9CAJ0 23-511) above
T2 sequence (O49686 whole entry K59R/F159V): as the sequence (O49686 whole entry K59R/M158T) above, with T158M, F159V counted along it
T2 sequence (Q9CAJ0 23-511, further chain): as the sequence (Q9CAJ0 23-511) above
T4 sequence (O49686 whole entry K59R/L87F): as the sequence (O49686 whole entry K59R/M158T) above, with L87F, T158M counted along it
T4 sequence (Q9CAJ0 23-511, further chain): as the sequence (Q9CAJ0 23-511) above
T7 sequence (Q9CAJ0 23-511): as above
T7 sequence (O49686 whole entry K59R/S92W): as the sequence (O49686 whole entry K59R/M158T) above, with S92W, T158M counted along it
T12 sequence (Q9CAJ0 23-511): as the sequence (Q9CAJ0 23-511) above
T12 sequence (O49686 whole entry K59R/A89I/S92W): as the sequence (O49686 whole entry K59R/M158T) above, with A89I, S92W, T158M counted along it
T1 sequence (Q9CAJ0 23-511): as the sequence (Q9CAJ0 23-511) above
T1 sequence (O49686 whole entry Y58H/K59R/V81I/F108A/S122G/F159L): as the sequence (O49686 whole entry K59R/M158T) above, with Y58H, V81I, F108A, S122G, T158M, F159L counted along it
T11 sequence (O49686 whole entry K59R/M158V): as the sequence (O49686 whole entry K59R/M158T) above, with T158V counted along it
T11 sequence (Q9CAJ0 23-511, further chain): as the sequence (Q9CAJ0 23-511) above

For `CC1=CC(=O)CC(C)(C)[C@@]1(O)/C=C/C(C)=C\C(=O)O` [ABA, abscisic acid], in assay [1], the “activation of the receptors by ABA” value is “not appreciably activated”. Moreover, the “levels of RAB18 and RD29 induced by ABA, compared with wild type” value in [2] was “higher”.
`CC1COc2ccccc2N1C(=O)C(Cl)Cl` (centres unmarked) [Benoxacor, benoxacor]: the Threshold in assay [3] was 100 µM; in assay [4] it was 100 µM; in [5] it was 100 µM; in assay [6] it was 50 µM; in assay [7] it was 100 µM; in assay [8], 50 µM. For the same compound, the Threshold in assay [9] is 50 µM; in assay [10], 100 µM; in [11], 100 µM; in [12] it was 100 µM; in assay [13] it was 50 µM; in assay [14], 50 µM.
